Source: ChEMBL document CHEMBL1201862, “PubChem BioAssay data set” (2004)
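Test compounds were applied to cells in 96-well plates for 48 hours at 5 doses. At the GI50, growth is halved.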 Active and inactive are the calls of the source. No stated cut-off is given here; in the data, active = GI50 up to about 1.1 µM and inactive = higher.

What was measured:
Assay in all cases: NCI anticancer screen, dose series, 48 h
[1] = test system: TK-10
[2] = test system: KM12
[3] = test system: MOLT-4
[4] = test system: A549
[5] = test system: Hs-578T
[6] = test system: K562
[7] = test system: A498
[8] = test system: HCT-116
[9] = test system: SNB-19
[10] = test system: UACC-257
[11] = test system: 786-0
[12] = test system: NCI-H460
[13] = test system: SF-295
[14] = test system: HOP-62
[15] = test system: NCI-H226
[16] = test system: NCI-H522
[17] = test system: HOP-92
[18] = test system: OVCAR-3
[19] = test system: SK-OV-3
[20] = test system: BT-549
[21] = test system: T47D
[22] = test system: OVCAR-8
[23] = test system: ACHN
[24] = test system: MDA-MB-435
[25] = test system: HCC 2998
[26] = test system: SR
[27] = test system: MDA-MB-231
[28] = test system: UO-31
[29] = test system: DU-145
[30] = test system: CAKI-1
[31] = test system: M14
[32] = test system: U-251
[33] = test system: SN12C
[34] = test system: SK-MEL-5
[35] = test system: Malme-3M
[36] = test system: RPMI-8226
[37] = test system: SK-MEL-28
[38] = test system: UACC-62
[39] = test system: MCF7
[40] = test system: OVCAR-4
[41] = test system: HT-29
[42] = test system: OVCAR-5
[43] = test system: SW-620
[44] = test system: RXF 393
[45] = test system: EKVX
[46] = test system: NCI/ADR-RES
[47] = test system: COLO 205
[48] = test system: NCI-H23
[49] = test system: MDA-N
[50] = test system: SF-268
[51] = test system: SK-MEL-2
[52] = test system: LOX IMVI
[53] = test system: HCT-15
[54] = test system: HL-60
[55] = test system: PC-3
[56] = test system: IGROV-1
[57] = test system: SNB-75
[58] = test system: CCRF-CEM

Measured: GI50

NS(=O)(=O)c1nnc(NS(=O)(=O)c2ccc(Cl)cc2)s1
> 100 µM: [53]
inactive: [1] > 100 µM | [2] > 100 µM | [3] > 100 µM | [4] > 100 µM | [5] > 100 µM | [6] > 100 µM | [7] > 100 µM | [8] > 100 µM | [9] > 100 µM | [10] > 100 µM | [11] > 100 µM | [12] > 100 µM | [13] > 100 µM | [14] > 100 µM | [15] > 100 µM | [16] > 100 µM | [17] > 100 µM | [18] > 100 µM | [19] > 100 µM | [20] > 100 µM | [21] > 100 µM | [22] > 100 µM | [23] > 100 µM | [24] > 100 µM | [25] > 100 µM | [26] > 100 µM | [27] > 100 µM | [28] > 100 µM | [29] > 100 µM | [30] > 100 µM | [31] > 100 µM | [32] > 100 µM | [33] > 100 µM | [34] > 100 µM | [35] > 100 µM | [36] > 100 µM | [37] > 100 µM | [38] > 100 µM | [39] > 100 µM | [40] > 100 µM | [41] > 100 µM | [42] > 100 µM | [43] > 100 µM | [44] > 100 µM | [45] > 100 µM | [46] > 100 µM | [47] > 100 µM | [48] > 100 µM | [49] > 100 µM | [50] > 100 µM | [51] > 100 µM | [52] > 100 µM

C1=C(c2ccccc2)NC2=N[C@H]3CCCC[C@@H]3N2C1c1ccccc1 (stereo not given in full)
inactive: [1] 10.4 µM | [2] 10.1 µM | [54] 10.3 µM | [3] 7.74 µM | [5] 17.2 µM | [55] 11.4 µM | [6] 5.15 µM | [7] 16.4 µM | [8] 7.67 µM | [56] 13 µM | [9] 14.6 µM | [10] 14.6 µM | [11] 16.9 µM | [12] 11 µM | [13] 13 µM | [15] 13.4 µM | [17] 12.7 µM | [18] 13.1 µM | [19] 15.8 µM | [20] 11.4 µM | [21] 16.4 µM | [22] 13.6 µM | [23] 13.7 µM | [24] 13.6 µM | [25] 14.4 µM | [26] 14.2 µM | [27] 15.8 µM | [28] 12.2 µM | [29] 16.1 µM | [30] 16.1 µM | [57] 11.3 µM | [31] 12.9 µM | [32] 13.4 µM | [34] 14.6 µM | [58] 6.67 µM | [35] 12.8 µM | [36] 4.82 µM | [37] 14.3 µM | [38] 15 µM | [40] 10.1 µM | [41] 3.51 µM | [42] 13.5 µM | [43] 13.2 µM | [45] 14.4 µM | [46] 12 µM | [47] 11 µM | [48] 12.7 µM | [49] 15.5 µM | [50] 21.5 µM | [51] 17.8 µM | [52] 15.3 µM
11.4 µM: [53]
